Assay results reported in patent US20230049917A1, “Pharmaceutical Composition of CASR Modulators and Methods and Uses Thereof” (Lupin Limited, priority 2019, published 2023).

Tests used:
[1] = First-in-human Phase 1 single- and multiple-dose study; assay type: in vivo; conditions: healthy subjects
[2] = Non-clinical studies: hypocalcaemia at efficacious doses; assay type: in vivo
[3] = test system: iPTH; experiment: Phase 2 PK-PD Study: iPTH suppression in CKD patients with SHPT; assay type: in vivo, human; conditions: 25 mg once daily
Method: A randomized, double-blind, placebo-controlled phase 2 clinical study was conducted to assess the efficacy, pharmacokinetics (PK), pharmacodynamics (PD) and safety of 2-methyl-5-((2R,4S)-2-((((R)-1-(naphthalen-1-yl)ethyl)amino)methyl) chroman yl)benzoic acid, hydrochloride (Compound 3), as a monotherapy in patients with CKD with secondary hyperparathyroidism (SHPT). The patients enrolled in the study were either on dialysis or not on dialysis. Patients could continue taking doses (whether stable dosing or otherwise) of calcium supplements, phosphate binders, vitamin D, vitamin D analogues or a combination thereof for the treatment of SHPT in combination with Compound 3. Patients can take at least one calcium supplement, phosphate binder, vitamin D, vitamin D analogue or a combination thereof concurrently or concomitantly with Compound 3. Dosing for such calcium supplements, phosphate binders, vitamin D, vitamin D analogues or a combination thereof for the treatment of SHPT can be individualized based on patient's iPTH levels, and/or can correlate with doses presently used for the treatment of SHPT.
This was an open-label, non-randomized, single arm study enrolling 10 patients of which 6 patients were on dialysis and 4 were not on dialysis. All patients received 25 mg Compound 3, once daily for […], and thereafter underwent PK-PD assessments. All 6 patients (100%) on dialysis group completed the study while 2 patients out of 4 (50%) on not on dialysis group completed the study. One objective of this study were to determine PK parameters maximum concentration, time to maximum concentration, area under the curve (AUC) (AUC from time 0 up to the last quantifiable concentration; AUC from time 0 to infinity; AUC from time 0 to 24 hours), half-life, apparent clearance, and apparent volume of distribution from blood samples collected at scheduled time-points. Yet another objective of this study was to determine PD parameters mean absolute change and mean percentage change from baseline in corrected total serum calcium and phosphorus.
For efficacy assessments, the primary efficacy assessment included measurement of iPTH and the exploratory efficacy assessment included measurement of parathyroid gland size at scheduled time points. Blood samples for measurement of iPTH were collected during Day −30 to Day −1 (Screening Period); Day 1; Day 8+/−3 days; Day 15+/−3 days; Day 30+/−3 days; Day 60+/−3 days; and Day 90+/−3 days (EOT/Early Discontinuations). […] If the blood sample collected on Day 90 could not be analysed for any reason, the second blood sample had to be collected within 3 days of end of treatment (EOT). Chemiluminescence microparticles immunoassay (CMIA) (such as Abbott's ARCHITECT® Intact PTH assay) was used to quantify iPTH in serum and plasma. […]

[4] = Pharmacokinetic analysis after oral administration of the formulation to rats; assay type: in vivo; conditions: male, Sprague Dawley, rat, in vivo, po, 5 mg/kg
Method: Male Sprague Dawley Rats (weight 225±25 gm; aged 8 to 10 weeks) were administered orally with the formulation. Each of the tested compounds was dosed at 5 mg/kg at a dose volume of 1 mL/kg. Blood samples were collected at time points 0.25, 0.5, 1, 2, 4, 6, 8 and 24 hours and analyzed the plasma concentrations of administered compound and calculated PK parameters. The plasma concentrations of the tested compounds were measured by liquid chromatography with tandem mass spectrometry (LCMS-MS) using […] extraction method. The plasma concentration-time data was subjected to Non-Compartmental Analysis using Phoenix WinNonlin® (Version 5.3) software to assess the pharmacokinetic parameters. Peak plasma concentrations (Cmax) and time for the peak plasma concentrations (Tmax) were the observed values. The area under the concentration time curve (AUC) was calculated by linear trapezoidal rule.

[5] = Phase 2 Main Study: phosphate change from baseline; assay type: in vivo, human
Method: For PK-PD assessments, blood samples for PK assessments were collected at scheduled time points (Screening Period; Day 1 (Pre-dose and post-dose); Day 2; Day 8 EOT (Pre-dose and post-dose); Day 9; Day 10; and Day 15+/−3 days (Follow-up visit)) in the PK-PD study. The PD profiling was done in parallel to the PK profiling in the PK-PD study. Blood samples (approximately 1×4 mL) for PK assessments were collected by venipuncture or cannulation at the selected time points into tubes containing dipotassium ethylenediaminetetraacetic acid (K2EDTA) anti-coagulant. The collected blood sample were kept on ice until centrifugation and later centrifuged at 4 °C at 5000 rpm for 10 minutes and the separated plasma collected in 2 tubes/aliquots. The plasma samples were stored at −20 °C or lower at the clinical centre until they were shipped for analysis. Blood samples (approximately 1×8 mL) for PD assessments were collected in PK-PD study and Main Study at selected time points The Main Study's selected time points were Screening Period; Day 1; Day 8+/−3 days; Day 15+/−3 days; Day 30+/−3 days; Day 60+/−3 days; and Day 90+/−3 days (EOT/Early Discontinuations). Blood samples (approximately 1×5 mL) for exploratory PD assessments for PK-PD study and Main Study were collected at selected time points.
Change from baseline to all measured and relevant time points was calculated. The baseline value for this study was the higher of the 2 values obtained during screening period for serum iPTH concentration, corrected total serum calcium and phosphorous. The baseline value for all other parameters was the last valid and planned visit value prior to first dose of IP in the study. For continuous data, summary statistics included the number, arithmetic mean, standard deviation (SD), median, minimum and maximum. For categorical data, frequency and percentage were presented.

hypocalcaemia [2]: No hypocalcaemia
AUC(0-t) [4]: 15 ± 4 µM·h
Cmax [4]: 3.4 ± 1 µM
Tmax [4]: 0.5 to 2 h
phosphorous levels due to administration over a period of 90 days ([5]; CKD patients not on dialysis): no increase
phosphorous levels due to administration over a period of 90 days ([5]; CKD patients on dialysis): no increase
difference in mean percentage change in phosphate from baseline at the end of 90 days versus Placebo ([5]; patients not on dialysis, 10 mg and 5 mg arms): not significant
difference in mean percentage change in phosphate from baseline at the end of 90 days versus Placebo ([5]; patients on dialysis, 10 mg, 20 mg and 25 mg arms): not significant
SMILES: Cc1ccc([C@@H]2C[C@H](CN[C@H](C)c3cccc4ccccc34)Oc3ccccc32)cc1C(=O)O.Cl [Compound 3, 2-methyl-5-((2R,4S)-2-((((R)-1-(naphthalen-1-yl)ethyl)amino)methyl)chroman-4-yl)benzoic acid hydrochloride]
safety and tolerability [1]: safe and well tolerated
peak effect on iPTH suppression from baseline ([3]; Day 1, within 4 hours of dosing, patients on dialysis and not on dialysis): > 80.0%
time of peak effect on iPTH suppression after dosing ([3]; Day 1 and Day 8): ≤ 4 h
peak effect on iPTH suppression from baseline ([3]; Day 8, within 4 hours of dosing, patients not on dialysis): > 85.0%
peak effect on iPTH suppression from baseline ([3]; Day 8, within 4 hours of dosing, patients on dialysis): > 70.0%
